According to patent US12624024B2, “EP2 antagonist compounds” (Reservoir Neuroscience, Inc., priority 2021, dated 2026):
pIC50: −log10 of the molar value.

Assays:
EP2 receptor = molecular target: T1, EP2 receptor (Homo sapiens, UniProt P43116); assay: EP2 Potency Assay (cAMP TR-FRET, CHO-K1 cells transfected with EP2 receptor, PGE2 at EC80); assay type: cell-based; details: CHO-K1 cells expressing EP2, prostaglandin E2 at EC80, read-out: EP2 Potency (IC50 category)
T1 construct: expressed in transfected cells; host or cells: CHO-K1 cells (ATCC), transient transfection with FuGENE 6
T1 sequence (P43116 whole entry): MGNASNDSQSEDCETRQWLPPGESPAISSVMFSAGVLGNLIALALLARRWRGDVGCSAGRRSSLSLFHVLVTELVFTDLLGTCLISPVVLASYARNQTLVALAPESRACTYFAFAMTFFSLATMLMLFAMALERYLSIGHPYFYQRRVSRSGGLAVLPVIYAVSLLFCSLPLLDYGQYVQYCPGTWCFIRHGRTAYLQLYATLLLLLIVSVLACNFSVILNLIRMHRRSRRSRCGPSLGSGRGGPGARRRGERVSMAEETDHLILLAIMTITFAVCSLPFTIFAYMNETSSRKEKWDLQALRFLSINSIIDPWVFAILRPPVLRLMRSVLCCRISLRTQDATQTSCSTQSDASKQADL
Outline: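 CHO-K1 cells transiently transfected with EP2 and seeded 24 h after transfection. IC50 from curve fit of percent inhibition versus concentration.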

[1] = Human Liver Microsome Stability; assay type: in vitro ADME; details: human liver microsomes 0.5 mg/mL, 37° C., 60 min; for half-life at 2 μM: read-out: T1/2 (microsomal); for microsomal CLint at 2 μM: read-out: in vitro CLint (microsomal)
Method: The tested compound was incubated in duplicate with human liver microsomes (0.5 mg/mL) at 37° C. These incubations were carried out at a final test article concentration of 2 μM over a total incubation period of 60 minutes. Samples were taken at 0, 15, 30, 45 and 60 min and the reaction terminated by addition of 4 volumes of acetonitrile containing internal standard (100 nM alprazolam, 200 nM imipramine, 200 nM labetalol and 2 μM ketoprofen). Diclofenac was used as a positive control in this study. The samples were analyzed by UPLC-MS/MS to determine the concentration of the test compound and the percent remaining, intrinsic clearance (in vitro CLint) and half-life (T1/2) values were calculated.
(§1) Chromatographic analyses were performed on a Shimadzu UPLC apparatus (Kyoto, Japan) consisting of a gradient pump (model LC-30AD), an automatic injector (model HTC PAL System) and an on-line degasser (model DGU-20A5R). Detection was a triple quadrupole tandem mass spectrometer equipped with a turbo ion spray interface (API 4000/Triple Quad 4500/Triple Quad 5500/Triple Quad 6500). Data acquisition and integration were carried out with LC-MS software (Analyst 1.6) linked directly to the LC-MS/MS system. Chromatographic separations were achieved on a XSelect Hss T3 2.5μ (2.1×30 mm) Column. The mobile phase was 0.1% formic acid in water (A) and 0.1% formic acid in acetonitrile (B). The flow rate was 1.0 mL/min and column was maintained at 40° C.
Half-life (T1/2) data is measured in minutes, and in Table B2, the data is grouped into categories of by the following rules: • T1/2 (microsomal): A=100+; B=50 to 100; C=20 to 50; D<20.
In vitro clearance (CLint) data is measured in μL/min/mg prot, and in Table B2, the data is grouped into categories of by the following rules: • CLint (microsomal): A<20; B=20 to 50; C=50 to 100; and D=100+.

[2] = Human Hepatocyte Stability; assay type: in vitro ADME; details: human hepatocytes 0.5×10^6 cells/mL, 120 min; for half-life at 1 μM: read-out: T1/2 (hepatic); for microsomal CLint at 1 μM: read-out: in vitro CLint (hepatic)
Method: The tested compound was incubated in duplicate with incubation media (Williams' Medium E with 1× GlutaMAX) containing human hepatocytes (0.5×10^6 cells/mL). These incubations were carried out at a final test concentration of 1 μM over a total incubation period of 120 minutes. Samples were taken at 0, 15, 30, 60, 90 and 120 min and the reaction was terminated by addition of acetonitrile containing internal standard (100 nM alprazolam, 200 nM labetalol, 200 nM caffeine and 200 nM diclofenac). Verapamil was used as the positive control in this study. The samples were analyzed by UPLC-MS/MS to determine the concentration of the tested compound and the percentage remaining, intrinsic clearance (in vitro CLint) and half-life (t½) values were calculated.
as §1
Half-life (T1/2) data is measured in minutes, and in Table B2, the data is grouped into categories of by the following rules: • T1/2 (hepatic): A=200+; B=100 to 200; C=50 to 100; and D<50.
In vitro clearance (CLint) data is measured in μL/min/mg prot, and in Table B3, the data is grouped into categories of by the following rules: • CLint (microsomal): A<5; B=5 to 10; C=10 to 20; and D=20+.

Structure (SMILES)	pIC50 (EP2 receptor)	half-life at 2 μM [1] [min]	microsomal CLint at 2 μM [1] [µL/min/mg]	half-life at 1 μM [2] [min]	microsomal CLint at 1 μM [2] [µL/min/mg]
C[C@@H]1COc2c(Cl)cc(-n3ccc4cc(F)ccc43)cc2CN1Cc1cnc(=O)[nH]c1 [Compound 9]	6.30 to 7.00	50 to 100	20 to 50	< 50	> 20
Nc1ncc(CN2CCOc3c(Cl)cc(-n4ccc5cc(F)ccc54)cc3C2)cn1 [Compound 146]	> 7.00	< 20	50 to 100	100 to 200	10 to 20
Fc1ccc2c(ccn2-c2cc(Cl)c3c(c2)CN(Cc2ccnc(C4COC4)c2)CCO3)c1 [Compound 187, 9-chloro-7-(5-fluoroindol-1-yl)-4-{[2-(oxetan-3-yl)pyridin-4-yl]methyl}-3,5-dihydro-2H-1,4-benzoxazepine]	6.30 to 7.00	< 20	> 100	< 50	> 20
O=c1cc(CN2CCOc3c(Cl)cc(-n4ccc5cc(F)ccc54)cc3C2)cc[nH]1 [Ref, 4-((9-chloro-7-(5-fluoro-1H-indol-1-yl)-2,3-dihydrobenzo[f][1,4]oxazepin-4(5H)-yl)methyl)pyridin-2(1H)-one, reference compound]	–	20 to 50	20 to 50	100 to 200	5 to 10

More lines, now with the values ahead:

pIC50 (EP2 receptor)	half-life at 2 μM [1] [min]	microsomal CLint at 2 μM [1] [µL/min/mg]	half-life at 1 μM [2] [min]	microsomal CLint at 1 μM [2] [µL/min/mg]	Structure (SMILES)
> 7.00	< 20	> 100	50 to 100	> 20	C[C@@H]1COc2c(Cl)cc(-n3ccc4cc(F)ccc43)cc2CN1Cc1cnc(N)nc1 [Compound 11, 5-{[9-chloro-7-(5-fluoroindol-1-yl)-3-methyl-3,5-dihydro-2H-1,4-benzoxazepin-4-yl]methyl}pyrimidin-2-amine]
> 7.00	> 100	< 20	> 200	5 to 10	O=c1ncc(CN2CCOc3c(Cl)cc(-n4ccc5cc(F)ccc54)cc3C2)c[nH]1 [Compound 58]
